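48-hour exposure; five concentrations; linearly interpolated endpoints. Here, GI50 denotes the concentration required for 50% inhibition of growth.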 Active and inactive are the calls of the source. Rule as the data show it: active = GI50 up to about 1.1 µM and inactive = higher.
How the values were obtained:
Experiment in all cases: NCI-60 cell line screen, 48 h
786-0 = tested on: 786-0
A498 = tested on: A498
ACHN = tested on: ACHN
CCRF-CEM = tested on: CCRF-CEM
COLO 205 = tested on: COLO 205
HCC 2998 = tested on: HCC 2998
HCT-116 = tested on: HCT-116
HCT-15 = tested on: HCT-15
HL-60 = tested on: HL-60
HT-29 = tested on: HT-29
K562 = tested on: K562
LOX IMVI = tested on: LOX IMVI
MDA-N = tested on: MDA-N
MOLT-4 = tested on: MOLT-4
NCI-H23 = tested on: NCI-H23
NCI/ADR-RES = tested on: NCI/ADR-RES
OVCAR-5 = tested on: OVCAR-5
PC-3 = tested on: PC-3
RPMI-8226 = tested on: RPMI-8226
RXF 393 = tested on: RXF 393
SF-268 = tested on: SF-268
SF-539 = tested on: SF-539
SK-MEL-28 = tested on: SK-MEL-28
SK-MEL-2 = tested on: SK-MEL-2
SK-OV-3 = tested on: SK-OV-3
SN12C = tested on: SN12C
SNB-19 = tested on: SNB-19
SNB-75 = tested on: SNB-75
SR = tested on: SR
U-251 = tested on: U-251
UACC-257 = tested on: UACC-257
UO-31 = tested on: UO-31

With CCOC(=O)C(O)(NC(=O)NC(O)(C(=O)OCC)C(F)(F)F)C(F)(F)F (configuration not stated) the GI50 (786-0) was > 100 µM (inactive), the GI50 (A498) was > 100 µM (inactive) and the GI50 (ACHN) was > 100 µM (inactive). The GI50 (CCRF-CEM) was > 100 µM (inactive), the GI50 (COLO 205) was > 100 µM (inactive) and the GI50 (HCC 2998) was > 100 µM (inactive). The GI50 (HCT-116) was > 100 µM (inactive), the GI50 (HCT-15) was > 100 µM and the GI50 (HL-60) was > 100 µM (inactive). The GI50 (HT-29) was > 100 µM (inactive), the GI50 (K562) was > 100 µM (inactive) and the GI50 (LOX IMVI) was > 100 µM (inactive). For the same molecule, the GI50 (MDA-N) was > 100 µM (inactive), the GI50 (MOLT-4) was > 100 µM (inactive) and the GI50 (NCI-H23) was > 100 µM (inactive). The GI50 (NCI/ADR-RES) was > 100 µM (inactive), the GI50 (OVCAR-5) was > 100 µM (inactive) and the GI50 (PC-3) was > 100 µM (inactive). The GI50 (RPMI-8226) was > 100 µM (inactive), the GI50 (RXF 393) was > 100 µM (inactive) and the GI50 (SF-268) was > 100 µM (inactive). For the same molecule, the GI50 (SF-539) was > 100 µM (inactive), the GI50 (SK-MEL-28) was > 100 µM (inactive) and the GI50 (SK-MEL-2) was > 100 µM (inactive). For the same molecule, the GI50 (SK-OV-3) was > 100 µM (inactive), the GI50 (SN12C) was > 100 µM (inactive) and the GI50 (SNB-19) was > 100 µM (inactive). The GI50 (SNB-75) was > 100 µM (inactive), the GI50 (SR) was > 100 µM (inactive) and the GI50 (U-251) was > 100 µM (inactive). For the same molecule, the GI50 (UACC-257) was > 100 µM (inactive) and the GI50 (UO-31) was > 100 µM (inactive).
